{
  "source": "paper PMC8688955",
  "about": "(Frontiers in Pharmacology, 2021)",
  "key": {"CI-AMPARs": {"target": "T1, CI-AMPARs (Rattus norvegicus, UniProt P19491, Q607R)", "T1 construct": "activity against native calcium-permeable AMPA receptors (CP-AMPARs) and calcium-impermeable AMPA receptors (CI-AMPARs); endogenous in cells; host or cells: acutely isolated pyramidal neurons from the CA1 area of Wistar rat hippocampal slices", "T1 sequence (P19491 22-883 Q607R)": "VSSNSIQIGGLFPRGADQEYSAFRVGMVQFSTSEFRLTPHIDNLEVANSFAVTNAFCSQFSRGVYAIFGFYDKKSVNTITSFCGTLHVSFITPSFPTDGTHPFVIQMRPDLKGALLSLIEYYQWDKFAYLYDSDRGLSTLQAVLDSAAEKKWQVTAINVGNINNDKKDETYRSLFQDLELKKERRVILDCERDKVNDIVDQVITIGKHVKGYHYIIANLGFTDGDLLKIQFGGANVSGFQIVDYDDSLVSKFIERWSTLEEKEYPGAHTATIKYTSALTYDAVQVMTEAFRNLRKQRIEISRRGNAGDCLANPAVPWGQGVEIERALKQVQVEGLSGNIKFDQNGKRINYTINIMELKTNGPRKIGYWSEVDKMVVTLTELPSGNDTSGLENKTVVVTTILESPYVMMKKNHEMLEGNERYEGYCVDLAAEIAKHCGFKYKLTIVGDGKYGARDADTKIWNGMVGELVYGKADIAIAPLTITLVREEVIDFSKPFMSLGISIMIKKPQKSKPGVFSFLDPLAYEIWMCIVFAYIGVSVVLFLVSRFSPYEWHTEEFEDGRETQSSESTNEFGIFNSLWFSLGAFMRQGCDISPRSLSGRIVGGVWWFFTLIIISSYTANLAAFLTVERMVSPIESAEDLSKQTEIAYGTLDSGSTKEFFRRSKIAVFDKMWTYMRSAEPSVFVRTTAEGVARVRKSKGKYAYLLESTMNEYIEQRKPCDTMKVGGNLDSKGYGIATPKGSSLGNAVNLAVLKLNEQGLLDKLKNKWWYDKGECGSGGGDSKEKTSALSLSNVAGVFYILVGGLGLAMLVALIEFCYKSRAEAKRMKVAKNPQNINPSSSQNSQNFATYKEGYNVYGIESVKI", "test": "Whole-cell patch-clamp of kainate-induced currents in isolated hippocampal CA1 pyramidal neurons", "type": "cell-based, Wistar rat", "conditions": "for % block: representative recording; for inhibition at 30 µM: 30 µM phenytoin, n = 7; for inhibition at 100 µM: 100 µM phenytoin, read-out: % inhibition; for inhibition at 50 µM: n = 6", "protocol": "All experimental procedures were approved by the Animal Care and Use Committee of the I.M. Sechenov Institute of Evolutionary Physiology and Biochemistry of the Russian Academy of Sciences. Wistar rats (13–19 days old) were anesthetized with sevoflurane and then decapitated. Maximum effort was made to minimize the number of animals used. Brains were removed quickly and cooled to 2–4°C in an ice bath. […] The antagonism of CI-AMPARs was studied on pyramidal neurons from the CA1 area of the hippocampus.\nSeries resistance of about 20 MΩ was compensated by 70–80% and monitored during experiments. Currents were recorded using an EPC-8 amplifier (HEKA Electronics, Lambrecht, Germany), filtered at 5 kHz, sampled, and stored on a personal computer. Drugs were applied using the RSC-200 perfusion system (BioLogic Science Instruments, Claix, France) under computer control. The solution exchange time in the whole-cell mode was 50–60 ms. […] The pipette solution contained (in mM) CsF 100, CsCl 40, NaCl 5, CaCl2 0.5, EGTA 5, and HEPES 10 (pH was adjusted to 7.2 with CsOH). Experiments were performed at room temperature (22–24°C). […] Lamotrigine, topiramate, levetiracetam, felbamate, carbamazepine, tiagabin, vigabatrin, zonisamide, and gabapentin were purchased from Tocris Bioscience (Bristol, United Kingdom). Perampanel was from MedChemExpress (Stockholm, Sweden). Kinetics of transient processes of more than 20-ms duration was approximated by exponential functions. Experiments were performed at −80 mV holding voltage. All experimental data are presented as mean ± SD estimated from at least four experiments. Significance of the effects was tested with paired t test. Differences were considered significant at p < 0.05. 3D structures of compounds were calculated by the ZMM software (zmmsoft.ca)."}, "CP-AMPARs": {"tested_on": "CP-AMPARs", "test": "Whole-cell patch-clamp of kainate-induced currents in isolated striatal giant interneurons", "type": "cell-based, Wistar rat", "conditions": "for % block: representative recording, Figure 1B; for % inhibition: 200 µM phenytoin, n = 5", "protocol": "All experimental procedures were approved by the Animal Care and Use Committee of the I.M. Sechenov Institute of Evolutionary Physiology and Biochemistry of the Russian Academy of Sciences. Wistar rats (13–19 days old) were anesthetized with sevoflurane and then decapitated. Maximum effort was made to minimize the number of animals used. Brains were removed quickly and cooled to 2–4°C in an ice bath. […] Single neurons were freed from slices by vibrodissociation ([Vorobjev, 1991]). The antagonism of CP-AMPARs was studied on striatal giant interneurons ([Bernard et al., 1997]; [Gotz et al., 1997]), which were identified by their shape and size. […] The antagonism of CI-AMPARs was studied on pyramidal neurons from the CA1 area of the hippocampus.\nSeries resistance of about 20 MΩ was compensated by 70–80% and monitored during experiments. Currents were recorded using an EPC-8 amplifier (HEKA Electronics, Lambrecht, Germany), filtered at 5 kHz, sampled, and stored on a personal computer. Drugs were applied using the RSC-200 perfusion system (BioLogic Science Instruments, Claix, France) under computer control. The solution exchange time in the whole-cell mode was 50–60 ms. The extracellular solution contained (in mM) NaCl 143, KCl 5, MgCl2 2.0, CaCl2 2.5, D-glucose 18, and HEPES 10 (pH was adjusted to 7.3 with HCl). The pipette solution contained (in mM) CsF 100, CsCl 40, NaCl 5, CaCl2 0.5, EGTA 5, and HEPES 10 (pH was adjusted to 7.2 with CsOH). Experiments were performed at room temperature (22–24°C). […] Lamotrigine, topiramate, levetiracetam, felbamate, carbamazepine, tiagabin, vigabatrin, zonisamide, and gabapentin were purchased from Tocris Bioscience (Bristol, United Kingdom). Perampanel was from MedChemExpress (Stockholm, Sweden). Kinetics of transient processes of more than 20-ms duration was approximated by exponential functions. Experiments were performed at −80 mV holding voltage. All experimental data are presented as mean ± SD estimated from at least four experiments. Significance of the effects was tested with paired t test. Differences were considered significant at p < 0.05. 3D structures of compounds were calculated by the ZMM software (zmmsoft.ca)."}, "[1]": {"target": "non-NMDA glutamate receptors", "design": "method as in Kawano et al., 1994", "conditions": "expressed in Xenopus oocytes; ref Kawano et al., 1994; cited from earlier work"}, "[2]": {"target": "non-NMDA glutamate receptors", "design": "method as in Phillips et al., 1997", "conditions": "neocortical wedges; ref Phillips et al., 1997; cited from earlier work"}, "[3]": {"target": "voltage-gated sodium channels", "design": "method as in Kuo and Bean, 1994; Lenkowski et al., 2007", "conditions": "ref Kuo and Bean, 1994; Lenkowski et al., 2007; read-out: Affinity to inactivated states of sodium channels; cited from earlier work"}, "[4]": {"conditions": "500 µM phenytoin, highest concentration tested"}, "[5]": {"conditions": "double-pulse protocol, 30-s pause"}},
  "note": "Read-outs that look alike come from different tables or passages of the source.",
  "data": [
    {"compound": "O=C1NC(=O)C(c2ccccc2)(c2ccccc2)N1", "note": "[Phenytoin]", "values": [
      {"measurement": "% block", "setting": "CI-AMPARs; 10 μM phenytoin, Figure 1A", "result": 28, "unit": "%"},
      {"measurement": "inhibition at 30 µM", "setting": "CI-AMPARs; 50 µM kainate", "result": "55 ± 3", "unit": "%"},
      {"measurement": "inhibition at 30 µM", "setting": "CI-AMPARs; 500 µM kainate", "result": "40 ± 7", "unit": "%"},
      {"measurement": "% block", "setting": "CI-AMPARs; 30 μM phenytoin, Figure 1A", "result": 52, "unit": "%"},
      {"measurement": "Washout kinetics τ", "setting": "CI-AMPARs; 50 µM phenytoin", "result": "1,100 ± 200 ms"},
      {"measurement": "Activity drop in the presence of cyclothiazide", "setting": "CI-AMPARs; 100 µM cyclothiazide, 50 µM kainate", "result": "Yes"},
      {"measurement": "inhibition at 100 µM", "setting": "CI-AMPARs; 50 µM kainate, absence of cyclothiazide", "result": "74 ± 4", "unit": "%"},
      {"measurement": "inhibition at 100 µM", "setting": "CI-AMPARs; 50 µM kainate, presence of 100 µM cyclothiazide", "result": "21 ± 7", "unit": "%"},
      {"measurement": "% block", "setting": "CI-AMPARs; 100 μM phenytoin, Figure 1A", "result": 75, "unit": "%"},
      {"measurement": "inhibition at 300 µM", "setting": "CI-AMPARs; 300 µM compound, read-out: percentage of inhibition at 300-µM concentration", "result": "≥ 80", "unit": "%"},
      {"measurement": "τ of the testing response to kainate in the trapping protocol", "setting": "CI-AMPARs; 300 µM phenytoin, 500 µM kainate, n = 4", "result": "81 ± 17", "unit": "ms"},
      {"measurement": "inhibition at 300 µM", "setting": "CI-AMPARs; 300 µM phenytoin, coapplication with agonist, n = 5, read-out: % inhibition of open AMPA receptor channels", "result": "87 ± 5", "unit": "%"},
      {"measurement": "inhibition at 300 µM", "setting": "CI-AMPARs; 300 µM phenytoin, preapplication without agonist, n = 5, read-out: % inhibition of closed AMPA receptor channels", "result": "37 ± 7", "unit": "%"},
      {"measurement": "% block", "setting": "CI-AMPARs; 300 μM phenytoin, Figure 1A", "result": 87, "unit": "%"},
      {"measurement": "inhibition of kainate-induced currents", "setting": "CI-AMPARs; [4]", "result": "almost complete inhibition"},
      {"measurement": "Activity drop at high (500 µM) kainate concentration", "setting": "CI-AMPARs; 50 vs 500 µM kainate", "result": "Yes"},
      {"measurement": "decrease in the % of inhibition with the increase in agonist concentration", "setting": "CI-AMPARs; 50 vs 500 µM kainate", "result": "10–15%"},
      {"measurement": "% block", "setting": "CI-AMPARs; Phenytoin, 30 μM, Ka 50 μM, Figure 3A", "result": 57, "unit": "%"},
      {"measurement": "% block", "setting": "CI-AMPARs; Phenytoin, 30 μM, Ka 500 μM, Figure 3A", "result": 44, "unit": "%"},
      {"measurement": "% block", "setting": "CI-AMPARs; Phenytoin, 100 μM, Kainate, 50 μM + cyclothiazide, 100 μM, Figure 5C", "result": 19, "unit": "%"},
      {"measurement": "% block", "setting": "CI-AMPARs; Phenytoin, 100 μM, Kainate, 50 μM, Figure 5B", "result": 74, "unit": "%"},
      {"measurement": "Difference in the % of inhibition in coapplication and preapplication protocols", "setting": "CI-AMPARs; coapplication with kainate vs preapplication without kainate", "result": "Yes"},
      {"measurement": "More active against CI-AMPARs", "setting": "CI-AMPARs; comparison of CI-AMPARs and CP-AMPARs", "result": "Yes"},
      {"measurement": "Trap in kainate 100 µM", "setting": "CI-AMPARs; [5]", "result": "Yes"},
      {"measurement": "Trap in kainate 500 µM", "setting": "CI-AMPARs; [5]", "result": "questionable"},
      {"measurement": "Trap in kainate 100 µM", "setting": "CI-AMPARs; double-pulse protocol, 30-s pause, listed as phenytoin", "result": "pronounced trapping"},
      {"measurement": "Hill coefficient", "setting": "CI-AMPARs; inhibition of CI-AMPARs, Hill equation", "result": "0.9 ± 0.2"},
      {"measurement": "inhibition at 50 µM", "setting": "CI-AMPARs; pH 7.4, 50 µM phenytoin, pH 7.4", "result": "60 ± 3", "unit": "%"},
      {"measurement": "pH-dependence", "setting": "CI-AMPARs; pH 7.4 vs 9.0", "result": "Yes"},
      {"measurement": "inhibition at 50 µM", "setting": "CI-AMPARs; pH 9, 50 µM phenytoin, pH 9.0", "result": "28 ± 8", "unit": "%"},
      {"measurement": "% block", "setting": "CI-AMPARs; phenytoin 50 μM, pH 7.4, Kainate, 100 μM, Figure 10A", "result": 62, "unit": "%"},
      {"measurement": "% block", "setting": "CI-AMPARs; phenytoin 50 μM, pH 9.0, Kainate, 100 μM, Figure 10A", "result": 29, "unit": "%"},
      {"measurement": "% block", "setting": "CP-AMPARs; 30 μM phenytoin", "result": 19, "unit": "%"},
      {"measurement": "% block", "setting": "CP-AMPARs; 100 μM phenytoin", "result": 38, "unit": "%"},
      {"measurement": "% inhibition", "setting": "CP-AMPARs; 50 µM kainate", "result": "59 ± 5", "unit": "%"},
      {"measurement": "% inhibition", "setting": "CP-AMPARs; 500 µM kainate", "result": "48 ± 2", "unit": "%"},
      {"measurement": "% block, coapplication with agonist", "setting": "CP-AMPARs; 300 µM phenytoin, n = 8", "result": "60 ± 6", "unit": "%"},
      {"measurement": "% block", "setting": "CP-AMPARs; 300 μM phenytoin", "result": 57, "unit": "%"},
      {"measurement": "inhibition of kainate-induced currents", "setting": "CP-AMPARs; [4]", "result": "58 ± 5", "unit": "%"},
      {"measurement": "Hill coefficient", "setting": "CP-AMPARs; inhibition of CP-AMPARs, Hill equation", "result": "0.7 ± 0.2"},
      {"measurement": "IC50", "setting": "CP-AMPARs; kainate-induced currents, Hill equation, −80 mV, read-out: IC50 CP-AMPARs", "result": "250 ± 60", "unit": "µM"},
      {"measurement": "IC50", "setting": "[1]", "result": "≥ 100", "unit": "µM"},
      {"measurement": "IC50", "setting": "[2]", "result": "≥ 100", "unit": "µM"},
      {"measurement": "Kd", "setting": "[3]", "result": "7 to 21", "unit": "µM"}
    ]}
  ]
}
